According to patent US20090118331A1, “Use of Lobeline Epimers in the Treatment of Central Nervous System Diseases, Pathologies, and Drug Abuse” (priority 2007, published 2009):
“And” between values parts separate entries of the source, which are not always exact repeats. Equal values may be shown once.

What was measured:
[1] = Pharmacokinetics of lobeline and epimer in human subjects after sublingual lobeline administration (7.5, 15, 30 mg); conditions: for AUCext (percent of AUC(0-∞) determined by extrapolation) / Tlast (time of last measurable plasma concentration) / λz (terminal exponential rate constant): lobeline in plasma; for AUCext (percent of AUC(0-∞) determined by extrapolation) / Tlast (time of last measurable plasma concentration) / λz (terminal exponential rate constant) / CL/F (extravascular clearance): individual human subjects; for CL/F (extravascular clearance): lobeline
Excerpt: The pharmacokinetics of lobeline and lobeline epimer were examined in eight human subjects (Sub) after sublingual lobeline administration.

[2] = Lobeline conversion to epimer in deionized water (HPLC); assay type: physicochemical
Experimental: Extensive in vitro studies on the epimerization of lobeline were conducted in a variety of aqueous media. […] The concentration of the lobeline solution (500 mL) was ca. 0.5 mg/mL, and 1.5 mL aliquot parts were removed in triplicate at each time point and analyzed by HPLC. Corresponding pH measurements were performed with a Coming Model 240 pH meter.

[3] = Lobeline conversion to epimer in the buffer system used at 37° C. in the VMAT2 uptake study (HPLC); assay type: physicochemical; conditions: for Lobeline %: VMAT2 uptake buffer, 37° C.
[4] = Lobeline epimerization in pH 7.4 phosphate buffer control; conditions: after 2 hours, with impurity
Experimental: In order to determine the tendency of lobeline to undergo epimerization in the HEPES buffer employed in the 25° C. [^3H]DTBZ binding study and the 37° C. VMAT2 uptake studies previously described, analogous solution epimerization experiments were conducted using the corresponding conditions for each individual assay. […] As this dynamic phenomenon occurs, the ratio of lobeline to lobeline epimer in solution naturally changes over time. Further, depending upon the solution conditions, the rate and extent of epimerization may vary; thus, a ratio of lobeline to epimer, if achieved, may occur at various time points. After 2 hours, the 25° C. […] The epimerization of lobeline in the 37° C.

clinical = conditions: human, in vivo
Experimental: Three consecutive doses of lobeline (either 30, 45 and 45 mg in the first study group, or 60, 60 and 60 mg in the second group) were administered to human volunteers at 0800, 1200 and 1600 over two full inpatient days. The pharmacokinetics of lobeline and epimer were then assessed in each subject. […] A crude index of accumulation (non-steady state) was obtained by dividing the sixth dose trough concentration by that observed for the fifth dose.

[5] = sublingual lobeline 30.0 mg, listed as lobeline

With `CN1[C@@H](CC(=O)c2ccccc2)CCC[C@H]1C[C@H](O)c1ccccc1` [Lobeline, 2-[6S-(2S-hydroxy-2-phenyl-ethyl)-1-methyl-piperidin-2R-yl]-1-phenyl-ethanone] the “dose linearity of Cmax and CL/F” value ([1]; dose range from 7.5 to 30 mg, sublingual, human) was “Linear kinetics”, the “Combined urinary excretion of lobeline and epimer” value ([1]; human, in vivo) was at most 0.5% and the AUC(0-inf) ([1]; human, in vivo, 30 mg) was 8.02 ng·h/mL. It also gave a half-life ([1]; human, in vivo, 30 mg, Terminal exponential phase half-life (T1/2), average) of about 2.4 h, a half-life ([1]; human, in vivo, 30 mg, Terminal exponential phase half-lives (T1/2 values), range) of 1 to 5 h and a Tmax ([1]; human, in vivo, 30 mg, Tmax values, range) of 0.25 to 3 h. For the same molecule, the Tmax ([1]; human, in vivo, 30 mg, Tmax, average) was 1.4 h, the half-life ([1]; human, in vivo, mean T1/2 values, human subjects, sublingual lobeline) was about 2 h and the “equilibrium ratio of lobeline to epimer” value ([1]; humans) was 1 to 10. The “AUCext (percent of AUC(0-∞) determined by extrapolation)” value ([1]; sublingual lobeline 7.50 mg) was 39.3% and 21.5% and 38.5% and 19.2% and 18.0% and 12.3% and 13.6% and 29.5%, the “Tlast (time of last measurable plasma concentration)” value (from here on “Tlast”) ([1]; sublingual lobeline 7.50 mg) was 3.03 hr and 4.00 hr (3×) and 4.05 hr and 6.00 hr (2×) and 12.00 hr and the “λz (terminal exponential rate constant)” value ([1]; sublingual lobeline 7.50 mg) was 0.401 h⁻¹ and 0.403 h⁻¹ and 0.195 h⁻¹ and 0.295 h⁻¹ and 0.277 h⁻¹ and 0.183 h⁻¹ and 0.555 h⁻¹ and 0.367 h⁻¹. The “AUCext (percent of AUC(0-∞) determined by extrapolation)” value ([1]; sublingual lobeline 15.0 mg) was 16.1% and 14.1% and 6.24% and 6.52% and 14.5% and 12.7% and 18.7% and 18.1%, the “Tlast” value ([1]; sublingual lobeline 15.0 mg) was 4.17 hr and 4.00 hr and 6.00 hr (3×) and 8.00 hr (2×) and 11.00 hr and the “λz (terminal exponential rate constant)” value ([1]; sublingual lobeline 15.0 mg) was 0.513 h⁻¹ and 0.544 h⁻¹ and 0.573 h⁻¹ and 0.341 h⁻¹ and 0.322 h⁻¹ and 0.206 h⁻¹ and 0.185 h⁻¹ and 0.321 h⁻¹. For the same molecule, the “Tlast” value ([1]; sublingual lobeline 30.0 mg) was 8.02 h, the “AUCext (percent of AUC(0-∞) determined by extrapolation)” value [1, 5] was 7.44% and 6.59% and 5.81% and 5.16% and 20.3% and 3.50% and 8.86% and 5.87% and the “Tlast” value [1, 5] was 4.00 h and 6.05 h and 12.17 h and 8.03 h and 22.75 h and 6.00 h and 8.00 h. The “λz (terminal exponential rate constant)” value [1, 5] was 0.878 h⁻¹ and 0.469 h⁻¹ and 0.314 h⁻¹ and 0.254 h⁻¹ and 0.149 h⁻¹ and 0.151 h⁻¹ and 0.376 h⁻¹ and 0.380 h⁻¹, the “CL/F (extravascular clearance)” value ([1]; sublingual lobeline 7.50 mg) was 2328 mL/min/kg and 844 mL/min/kg and 1116 mL/min/kg and 623 mL/min/kg and 792 mL/min/kg and 179 mL/min/kg and 1502 mL/min/kg and 1051 mL/min/kg and the “CL/F (extravascular clearance)” value ([1]; sublingual lobeline 15.0 mg) was 1995 mL/min/kg and 866 mL/min/kg and 1364 mL/min/kg and 550 mL/min/kg and 1183 mL/min/kg and 188 mL/min/kg and 1194 mL/min/kg and 1068 mL/min/kg. The “CL/F (extravascular clearance)” value ([1]; sublingual lobeline 30.0 mg) was 1809 mL/min/kg and 1169 mL/min/kg and 1269 mL/min/kg and 572 mL/min/kg and 1736 mL/min/kg and 162 mL/min/kg and 2340 mL/min/kg and 857 mL/min/kg, the “% Lobeline (Mean ± SD)” value ([2]; Solution 1 (Lobeline in “fresh” DI Water), time 0, pH 6.02) was 99.16% and the “% Lobeline (Mean ± SD)” value ([2]; Solution 1 (“fresh” DI Water), 15 min, pH 6.03-6.24) was 99.17 ± 0.053%. The “% Lobeline (Mean ± SD)” value ([2]; Solution 1 (“fresh” DI Water), 30 min, pH 6.02-6.24) was 99.01 ± 0.162%, the “% Lobeline (Mean ± SD)” value ([2]; Solution 1 (“fresh” DI Water), 45 min, pH 6.13-6.37) was 99.06 ± 0.146% and the “% Lobeline (Mean ± SD)” value ([2]; Solution 1 (“fresh” DI Water), 1 h, pH 6.26-6.52) was 99.00 ± 0.195%. The “% Lobeline (Mean ± SD)” value ([2]; Solution 1 (“fresh” DI Water), 80 min, pH 6.19-6.50) was 98.54 ± 0.112%, the “% Lobeline (Mean ± SD)” value ([2]; Solution 1 (“fresh” DI Water), 100 min, pH 6.16-6.50) was 98.50 ± 0.139% and the “% Lobeline (Mean ± SD)” value ([2]; Solution 1 (“fresh” DI Water), 2 h, pH 5.63-5.88) was 98.42 ± 0.601%. For the same molecule, the “% Lobeline (Mean ± SD)” value ([2]; Solution 2 (Lobeline in “8-h” DI Water), time 0, pH 7.87) was 98.97%, the “% Lobeline (Mean ± SD)” value ([2]; Solution 2 (“8-h” DI Water), 15 min, pH 7.78-8.21) was 99.34 ± 0.274% and the “% Lobeline (Mean ± SD)” value ([2]; Solution 2 (“8-h” DI Water), 30 min, pH 7.58-7.85) was 99.49 ± 0.215%. For the same molecule, the “% Lobeline (Mean ± SD)” value ([2]; Solution 2 (“8-h” DI Water), 45 min, pH 7.66-7.68) was 99.35 ± 0.056%, the “% Lobeline (Mean ± SD)” value ([2]; Solution 2 (“8-h” DI Water), 1 h, pH 6.84-7.11) was 99.20 ± 0.085% and the “% Lobeline (Mean ± SD)” value ([2]; Solution 2 (“8-h” DI Water), 80 min, pH 6.53-6.79) was 99.11 ± 0.150%. The “% Lobeline (Mean ± SD)” value ([2]; Solution 2 (“8-h” DI Water), 100 min, pH 6.24-6.51) was 98.99 ± 0.206%, the “% Lobeline (Mean ± SD)” value ([2]; Solution 2 (“8-h” DI Water), 2 h, pH 6.21-6.49) was 98.78 ± 0.258% and the “conversion of lobeline to lobeline epimer” value ([2]; fresh deionized water or water allowed to absorb atmospheric carbon dioxide for up to 8 hours, 2 hour time course) was “ca. 1%”. The “component content of solution” value ([3]; 37° C. uptake buffer with ATP-Mg2+ cofactor reduced from 2 mM to 0.4 mM, after 2 hours, with impurity) was 66%, the “final component concentration (as a function of the area under the curve)” value ([3]; VMAT2 uptake buffer (HEPES), 2 hour incubation at 37° C.) was 69% and the Lobeline % ([3]; T0, sample age 0:01) was 98.2%. It also gave a Lobeline % ([3]; T5, sample age 0:05) of 96.7%, a Lobeline % ([3]; T10, sample age 0:10) of 94.4% and a Lobeline % ([3]; T15, sample age 0:15) of 91.2%. The Lobeline % ([3]; T25, sample age 0:25) was 86.5%, the Lobeline % ([3]; T30, sample age 0:30) was 84.7% and the Lobeline % ([3]; T35, sample age 0:35) was 83.4%. For the same molecule, the Lobeline % ([3]; T40, sample age 0:40) was 81.8%, the Lobeline % ([3]; T45, sample age 0:45) was 80.6% and the Lobeline % ([3]; T50, sample age 0:50) was 79.3%. For the same molecule, the Lobeline % ([3]; T55, sample age 0:55) was 78.5%, the Lobeline % ([3]; T60, sample age 1:00) was 77.2% and the Lobeline % ([3]; T70, sample age 1:10) was 75.0%. It also gave a Lobeline % ([3]; T80, sample age 1:20) of 73.1%, a Lobeline % ([3]; T90, sample age 1:31) of 72.2% and a Lobeline % ([3]; T100, sample age 1:40) of 71.1%. For the same molecule, the Lobeline % ([3]; T110, sample age 1:50) was 69.6%, the Lobeline % ([3]; T120, sample age 2:00) was 68.5% and the “component content of solution” value ([4]; pH 7.4 phosphate buffer control, same temperature as 25° C. binding buffer) was 64%. The “component content of solution” value ([4]; phosphate buffer control for the 37° C. VMAT2 uptake buffer) was 62%, the half-life (clinical) was 3.91 h and the “time at which geometric mean plasma concentration peaked” value (clinical) was 1.26 h.
